Residue numbers refer to the chain shown, from its start. Numbers in names are those of the source. Where “and” joins values, the source holds several entries; their conditions need not be identical. Equal values may be shown once. Read-outs that look alike come from different tables or passages of the source. Where no end group is shown, it is not given here. [ ]: non-standard residue; d: D form.
Legend:
HIV-1 (HXB2) = assay: Plaque reduction assay in CD4+ HeLa cells of serially passaged virus; assay type: cell-based
HIV-1 = HIV-1 infectivity on serial passage in MT-4 cells with drug; assay type: cell-based
HepG2 intact cells = assay: Cellular uptake of rhodamine-labeled DNase complexes, fluorimeter; assay type: cell-based, human; conditions: 30 min incubation
Procedure: (§1) The cellular uptake of bovine DNase I (DNase), DNase-PEG and DNase-PEG-R8 complex is evaluated using the HepG2 cell line (human hepatocarcinoma cells ATCC, No-HB-8065). […] DNase I is labeled with fluorescent rodamine (*) according to the manufacturer's instruction (Pierce, Inc., Rockford, Ill.). Penetration of *DNase-PEG-K-R8 into HepG2 cells is compared to that of *DNase and *DNase-PEG after 30 min of incubation with HepG2 cells in DMEM at 37° C.
(§2) To maintain the cells the growth medium 199 is used.

HepG2 VV-infected cells = assay type: cell-based, human; conditions: 30 min incubation
Procedure: as §1, §2

cytomegalovirus = assay: Antiviral activity of modified DNase I against cytomegalovirus in cell culture; conditions: 500 UA/ml, 48 h at 37° C.; for Virus Titer: single values
mouse leukemia virus [1] = assay: Treatment of viral lymphatic leukemia in 9-10 month old AKR mice; assay type: in vivo; conditions: 5 kUA/g s.c. every four days
Procedure: To study the treatment effect of DNase and TDNase, the experiment is carried out on 9-10 month old AKR mice with manifestations of lymphoid leukemia. A significant increase in the size of lymph nodes, thymus, liver and spleen and high mitotic index in lymphoid tissues is observed in these animals. The treated groups include 24 mice in each while the control group includes 19 mice. Administration of DNase I and TDNase every four days s.c., in a dose of 5,000 KuU/g body weight, results in a decrease of lymphatic tissues and mitotic index to normal levels, and in an increase in longevity of animals. However, a more profound effect is obtained in animals receiving TDNase than DNase, and receiving TDNase-PEG than TDNase, as is shown in Table 25.

cytomegalovirus (CMV) = assay: Anti-CMV activity in HEP-2 cells; conditions: for CMV Titer: single values
mouse leukemia virus [2] = assay: Prevention of leukemia development in AKR mice; assay type: in vivo; conditions: 5,000 KuU/g s.c. every second day for a month
Text: Leukemia in AKR mice is known to be promoted by mouse leukemia virus. The lymphoid tissues of AKR mice contain mouse leukemia virus, and spontaneously develop leukemia, at the age of 6-8 months.

Vaccinia virus = assay type: cell-based; conditions: 500 KuU/ml, 48 h at 37° C.
[3] = system: Herpes simplex virus, type I (HSV-1); assay: Anti-HSV-1 activity in HEP-2 cells; assay type: cell-based; conditions: for HSV Titer: single values
dsDNA [4] = conditions: physiological monovalent cation strength; cited from earlier work
S-protein = S-protein (Bos taurus, UniProt P61823); conditions: N-terminal residues 1-15; cited from earlier work
avian adenovirus = system: avian adenovirus; set-up: species or system chickens; conditions: in vivo
[5] = system: herpes virus simplex I (HSV-I); assay: Effect of tri-peptide P3 and P-PEG-R8 on replication of HSV-1 in vitro; assay type: cell-based; conditions: for HSV Titer: single values
dsRNA reovirus = assay: RNase A on virus replication in HEP-2 cells; conditions: 200 UA/ml
[6] = system: ssRNA equine encephalitis virus; assay type: cell-based; conditions: 500 UA/ml
honeybee paralysis virus = assay type: in vivo, honeybees; conditions: of 100 infected
Procedure: Infectious titer of HBVP is […] per ml. The honeybees are infected by feeding the viral emulsion. Insects are sprayed by an aerosol of enzyme diluted in physiological solution 3 hours before the inoculation of virus. […] Treatment of insects 6 hours after inoculation of virus still protected them from development of disease.

ssRNA coronavirus = assay: RNase A on virus replication in HEP-2 cells; conditions: 200 UA/ml
dsDNA [7] = assay: Hydrolysis of dsDNA in human serum by native, multi-charged and actin-resistant DNase I variants
ssRNA corona virus = assay: Antiviral efficacy of pegylated human RNase I

## Cc1cn([C@H]2C[C@H](N=[N+]=[N-])[C@@H](CO)O2)c(=O)[nH]c1=O [AZT]
HIV-1 (HXB2); sixth passage
  shift in sensitivity: > 1000 fold
HIV-1 (HXB2); virus of fourth passage in drug-treated MT-4 cells
  IC50: > 50 µM
HIV-1 (HXB2); virus of sixth passage
  IC50: > 250 µM
HIV-1; passage 0
  HIV-1 infectivity: 2.8 log10TCID50/ml
HIV-1; passage 1
  HIV-1 infectivity: 2.6 log10TCID50/ml
HIV-1; passage 2
  HIV-1 infectivity: 3.8 log10TCID50/ml
HIV-1; passage 5
  HIV-1 infectivity: 4.7 log10TCID50/ml
HIV-1; passage 15
  HIV-1 infectivity: 5.9 log10TCID50/ml

## *DNase
HepG2 intact cells
  OD (430 nm), cellular uptake: 37
HepG2 VV-infected cells
  OD (430 nm), cellular uptake: 48

## DNase
cytomegalovirus
  Average Titer: 6.5 logTCD50/0.1 ml
  Virus Titer: 6.3 logTCD50/0.1 ml and 6.4 logTCD50/0.1 ml and 6.5 logTCD50/0.1 ml
Mouse leukemia virus [1]
  Liver: 941 ± 33 g
  Longevity (weeks): 16 ± 1.0 weeks
  Mitotic Index: 0.18 ± 0.02
Cytomegalovirus (CMV); 50 UA/ml
  Average Titer: 5.1 logTCD50/ml
  CMV Titer: 5.1 logTCD50/ml and 5.0 logTCD50/ml
Cytomegalovirus (CMV); 100 UA/ml
  Average Titer: 4.5 logTCD50/ml
  CMV Titer: 4.6 logTCD50/ml and 4.5 logTCD50/ml and 4.7 logTCD50/ml
Cytomegalovirus (CMV); 500 UA/ml
  Average Titer: 3.8 logTCD50/ml
  CMV Titer: 3.8 logTCD50/ml and 3.9 logTCD50/ml and 3.7 logTCD50/ml
Cytomegalovirus (CMV); [0] UA/ml
  Average Titer: 5.5 logTCD50/ml
  CMV Titer: 5.4 logTCD50/ml and 5.6 logTCD50/ml and 5.5 logTCD50/ml
Mouse leukemia virus [2]
  development of leukemia: preclude the development of leukemia
Vaccinia virus
  Average log TCD50: 4.7 log TCD50
Vaccinia virus; single values
  log TCD50: 4.6 log TCD50 and 4.8 log TCD50
[3]; 10 UA/ml
  Average Titer: 5.4 logTCD50/ml
  HSV Titer: 5.4 logTCD50/ml and 5.5 logTCD50/ml and 5.3 logTCD50/ml
[3]; 50 UA/ml
  Average Titer: 5.1 logTCD50/ml
  HSV Titer: 5.1 logTCD50/ml and 5.0 logTCD50/ml
[3]; 100 UA/ml
  Average Titer: 4.5 logTCD50/ml
  HSV Titer: 4.6 logTCD50/ml and 4.5 logTCD50/ml and 4.7 logTCD50/ml
[3]; 500 UA/ml
  Average Titer: 3.8 logTCD50/ml
  HSV Titer: 3.8 logTCD50/ml and 3.9 logTCD50/ml and 3.7 logTCD50/ml

## EndoG: sugar-nonspecific 29 kDa human endonuclease
dsDNA [4]
  inhibition: about 15 fold

## KETAAAKFERQHMDS [bovine S-peptide]
S-protein
  Kd: < 0.001 µM

## [dS]-His
Avian adenovirus
  chickens that survive: 18

## [dS]-His-[dD] [P3]
[5]; 10 UA/ml
  Average Titer: 5.7 logTCD50/ml
  HSV Titer: 5.8 logTCD50/ml and 5.6 logTCD50/ml and 5.7 logTCD50/ml
[5]; 50 UA/ml
  Average Titer: 5.4 logTCD50/ml
  HSV Titer: 5.5 logTCD50/ml and 5.4 logTCD50/ml and 5.3 logTCD50/ml
[5]; 100 UA/ml
  Average Titer: 5.1 logTCD50/ml
  HSV Titer: 5.2 logTCD50/ml and 5.3 logTCD50/ml and 5.1 logTCD50/ml
[5]; 500 UA/ml
  Average Titer: 4.8 logTCD50/ml
  HSV Titer: 4.8 logTCD50/ml and 4.9 logTCD50/ml and 4.7 logTCD50/ml
Avian adenovirus
  chickens that survive: 19

B1: RNase A: bovine RNase A (Examples 21, 23, 24, 28, 37, 40) (protein, UniProt P61823 27-150, looked up)
Ribonuclease pancreatic: KETAAAKFERQHMDSSTSAASSSNYCNQMMKSRNLTKDRCKPVNTFVHESLADVQAVCSQKNVACKNGQTNCYQSYSTMSITDCRETGSSKYPNCAYKTTQANKHIIVACEGNPYVPVHFDASV
dsRNA reovirus
  Average Titer: 4.0 logTCD50/0.1 ml
dsRNA reovirus; single values
  Titer: 4.0 logTCD50/0.1 ml and 4.1 logTCD50/0.1 ml and 3.9 logTCD50/0.1 ml
[6]
  Average Titer: 5.26 logTCD50/0.1 ml
[6]; single values
  Titer: 5.2 logTCD50/0.1 ml and 5.4 logTCD50/0.1 ml
Honeybee paralysis virus; 200 UA/ml
  Surviving Honeybees: 4
Honeybee paralysis virus; 500 UA/ml
  Surviving Honeybees: 11
Honeybee paralysis virus; 1000 UA/ml
  Surviving Honeybees: 67
Honeybee paralysis virus; 1500 UA/ml
  Surviving Honeybees: 100
ssRNA coronavirus
  Average Titer: 1.5 logTCD50/0.1 ml
ssRNA coronavirus; single values
  Titer: 1.4 logTCD50/0.1 ml and 1.6 logTCD50/0.1 ml and 1.5 logTCD50/0.1 ml

B2: arDNase (+1): actin-resistant human DNase I with substitution A114R (protein, UniProt P24855 23-282, looked up, variant A114R)
Deoxyribonuclease-1: LKIAAFNIQTFGETKMSNATLVSYIVQILSRYDIALVQEVRDSHLTAVGKLLDNLNQDAPDTYHYVVSEPLGRNSYKERYLFVYRPDQVSAVDSYYYDDGCEPCGNDTFNREPRIVRFFSRFTEVREFAIVPLHAAPGDAVAEIDALYDVYLDVQEKWGLEDVMLMGDFNAGCSYVRPSQWSSIRLWTSPTFQWLIPDSADTTATPTHCAYDRIVVAGMLLRGAVVPDSALPFNFQAAYGLSDQLAQAISDHYPVEVMLK
dsDNA [7]
  Average T50 (min) 50% DNA hydrolysis: 3 min
dsDNA [7]; single values of triplicate
  Time T50 (min) 50% DNA hydrolysis: 2 min and 3 min and 4 min

B3: (PNA)2-PEG-DNase: 18-mer bis-PNA complementary to viral DNA conjugated with forked 2×20 kDa PEG and human DNase I (conjugate, UniProt P24855 23-282, looked up)
Deoxyribonuclease-1: B2 Deoxyribonuclease-1 with R114A
modifications: forked 2x20 kDa PEG, bis-PNA
cytomegalovirus
  Average Titer: 0.3 logTCD50/0.1 ml
  Virus Titer: 0.2 logTCD50/0.1 ml and 0.3 logTCD50/0.1 ml and 0.4 logTCD50/0.1 ml

B4: PEG-DNase: human DNase I conjugated with PEG (Example 14) (conjugate, UniProt P24855 23-282, looked up)
Deoxyribonuclease-1: B2 Deoxyribonuclease-1 with R114A
modifications: PEG
cytomegalovirus
  Average Titer: 3.4 logTCD50/0.1 ml
  Virus Titer: 3.2 logTCD50/0.1 ml and 3.4 logTCD50/0.1 ml and 3.5 logTCD50/0.1 ml

B5: pegylated RNase I: wild-type recombinant human RNase I reacted with mPEG-SS (conjugate, UniProt P07998 29-156, looked up)
Ribonuclease pancreatic: KESRAKKFQRQHMDSDSSPSSSSTYCNQMMRRRNMTQGRCKPVNTFVHEPLVDVQNVCFQEKVTCKNGQGNCYKSNSSMHITDCRLTNGSRYPNCAYRTSPKERHIIVACEGSPYVPVHFDASVEDST
modifications: mPEG-SS
ssRNA corona virus
  antiviral efficacy compared with unpegylated enzyme: enhances its antiviral efficacy

Source: US10335372B2, “Compositions with modified nucleases targeted to viral nucleic acids and methods of use for prevention and treatment of viral diseases” (priority 2004, dated 2019)
